Patent publication US20150164762A1, “USE OF ETHANOLAMINE PHOSPHATE” (priority 2012, published 2015)

Test system: BEAS-2B
Assay: Comprehensive gene expression analysis with Whole Human Genome DNA microarray after EP treatment
Type: cell-based
Experimental: Cells of the established normal human airway epithelial cell line BEAS-2B were used in the experiment. These cells were expansively cultured in 10% FBS RPMI-1640, and seeded at a density of 1×10^5/cm^2 on a 24-well plate. After 24 hours 0.1% FBS RPMI-1640 was substituted, and EP was administered to a final concentration of 0 or 1 mM (n=4). After 24 hours, the cells were used as the DNA microarray samples. RNA was extracted using a QIAGEN RNeasy Mini Kit. The DNA microarray test was performed using a Whole Human Genome DNA microarray 4×44K (Agilent), and the necessary labeling reagents and the like for the DNA microarray test were all from Agilent. The DNA microarray test data were analyzed statistically with GeneSpring (Agilent) dedicated analysis software, and gene function analysis (Gene Ontology (GO) analysis) was performed based on differential expression. The purpose of the GO analysis is to determine stochastically the degree to which gene sets with statistically significant differential expression correspond to known functional classification gene sets. […] The p-value is calculated according to the following formula.

[1] = probe A_23_P149529, 1 mM EP, 24 h
[2] = probe A_23_P151294, NM_000619, EP vs control
[3] = probe A_23_P151294, 1 mM EP, 24 h
[4] = probe A_23_P151649, NM_080649, EP vs control
[5] = probe A_23_P156310, 1 mM EP, 24 h
[6] = probe A_23_P159210, 1 mM EP, 24 h
[7] = probe A_23_P160025, 1 mM EP, 24 h
[8] = probe A_23_P163787, 1 mM EP, 24 h
[9] = probe A_23_P167096, 1 mM EP, 24 h
[10] = probe A_23_P167585, NM_005260, EP vs control
[11] = probe A_23_P168882, 1 mM EP, 24 h
[12] = probe A_23_P168909, 1 mM EP, 24 h
[13] = probe A_23_P169030, 1 mM EP, 24 h
[14] = probe A_23_P169738, 1 mM EP, 24 h
[15] = probe A_23_P201808, 1 mM EP, 24 h
[16] = probe A_23_P202978, 1 mM EP, 24 h
[17] = probe A_23_P206077, 1 mM EP, 24 h
[18] = probe A_23_P206396, 1 mM EP, 24 h
[19] = probe A_23_P206661, NM_000903, EP vs control
[20] = probe A_23_P207003, 1 mM EP, 24 h
[21] = probe A_23_P207999, 1 mM EP, 24 h
[22] = probe A_23_P208706, 1 mM EP, 24 h
[23] = probe A_23_P209625, NM_000104, EP vs control
[24] = probe A_23_P211762, 1 mM EP, 24 h
[25] = probe A_23_P211957, 1 mM EP, 24 h
[26] = probe A_23_P213706, NM_000589, EP vs control
[27] = probe A_23_P213745, NM_004887, EP vs control
[28] = probe A_23_P214950, 1 mM EP, 24 h
[29] = probe A_23_P217866, 1 mM EP, 24 h
[30] = probe A_23_P250554, 1 mM EP, 24 h
[31] = probe A_23_P252817, 1 mM EP, 24 h
[32] = probe A_23_P253932, 1 mM EP, 24 h
[33] = probe A_23_P255653, 1 mM EP, 24 h
[34] = probe A_23_P258194, 1 mM EP, 24 h
[35] = probe A_23_P258310, NM_144651, EP vs control
[36] = probe A_23_P259071, NM_001657, EP vs control
[37] = probe A_23_P303210, 1 mM EP, 24 h

NCCOP(=O)(O)O [EP, Ethanolamine phosphate]
TACSTD2 expression R*: Ratio to control [1]: 1.507 times
TACSTD2 expression log2 [ratio] [1]: 0.591
IFNG gene expression, R* ratio to control [2]: 0.611 times
IFNG gene expression, log2 [ratio] [2]: −0.710
IFNG expression R*: Ratio to control [3]: 0.611 times
IFNG expression log2 [ratio] [3]: −0.710
APEX1 gene expression, R* ratio to control [4]: 1.455 times
APEX1 gene expression, log2 [ratio] [4]: 0.541
SKP2 expression R*: Ratio to control [5]: 1.531 times
SKP2 expression log2 [ratio] [5]: 0.615
CDKN1A expression R*: Ratio to control [6]: 0.439 times
CDKN1A expression log2 [ratio] [6]: −1.187
IFI16 expression R*: Ratio to control [7]: 0.629 times
IFI16 expression log2 [ratio] [7]: −0.669
MMP2 expression R*: Ratio to control [8]: 1.578 times
MMP2 expression log2 [ratio] [8]: 0.658
VEGFC expression R*: Ratio to control [9]: 1.637 times
VEGFC expression log2 [ratio] [9]: 0.711
GDF9 gene expression, R* ratio to control [10]: 0.357 times
GDF9 gene expression, log2 [ratio] [10]: -1.49
TP53INP1 expression R*: Ratio to control [11]: 0.395 times
TP53INP1 expression log2 [ratio] [11]: −1.339
ZFPM2 expression R*: Ratio to control [12]: 1.678 times
ZFPM2 expression log2 [ratio] [12]: 0.746
TNFRSF10B expression R*: Ratio to control [13]: 0.636 times
TNFRSF10B expression log2 [ratio] [13]: −0.653
SOX7 expression R: Ratio to control [14]: 0.362 times
SOX7 expression log2 [ratio] [14]: −1.464
PPAP2B expression R*: Ratio to control [15]: 1.919 times
PPAP2B expression log2 [ratio] [15]: 0.941
CASP1 expression R*: Ratio to control [16]: 0.641 times
CASP1 expression log2 [ratio] [16]: −0.642
AEN expression R*: Ratio to control [17]: 0.420 times
AEN expression log2 [ratio] [17]: −1.253
CKLF expression R*: Ratio to control [18]: 1.601 times
CKLF expression log2 [ratio] [18]: 0.679
NQO1 gene expression, R* ratio to control [19]: 1.480 times
NQO1 gene expression, log2 [ratio] [19]: 0.566
SEPT4 expression R*: Ratio to control [20]: 0.503 times
SEPT4 expression log2 [ratio] [20]: −0.990
PMAIP1 expression R: Ratio to control [21]: 0.344 times
PMAIP1 expression log2 [ratio] [21]: −1.540
BAX expression R*: Ratio to control [22]: 0.453 times
BAX expression log2 [ratio] [22]: −1.143
CYP1B1 gene expression, R* ratio to control [23]: 1.584 times
CYP1B1 gene expression, log2 [ratio] [23]: 0.663
COL8A1 expression R*: Ratio to control [24]: 1.643 times
COL8A1 expression log2 [ratio] [24]: 0.716
TGFBR2 expression R*: Ratio to control [25]: 1.634 times
TGFBR2 expression log2 [ratio] [25]: 0.708
IL4 gene expression, R* ratio to control [26]: 0.420 times
IL4 gene expression, log2 [ratio] [26]: −1.251
CXCL14 gene expression, R* ratio to control [27]: 0.364 times
CXCL14 gene expression, log2 [ratio] [27]: −1.456
PERP expression R: Ratio to control [28]: 0.521 times
PERP expression log2 [ratio] [28]: −0.941
1FI16 expression R*: Ratio to control [29]: 0.585 times
1FI16 expression log2 [ratio] [29]: −0.773
AGGF1 expression R*: Ratio to control [30]: 1.523 times
AGGF1 expression log2 [ratio] [30]: 0.607
SST expression R: Ratio to control [31]: 0.666 times
SST expression log2 [ratio] [31]: −0.587
FAIM expression R*: Ratio to control [32]: 1.670 times
FAIM expression log2 [ratio] [32]: 0.740
TNFRSF10A expression R*: Ratio to control [33]: 0.402 times
TNFRSF10A expression log2 [ratio] [33]: −1.314
A1FM3 expression R*: Ratio to control [34]: 0.580 times
A1FM3 expression log2 [ratio] [34]: −0.761
PXDNL gene expression, R* ratio to control [35]: 2.426 times
PXDNL gene expression, log2 [ratio] [35]: 1.278
AREG gene expression, R* ratio to control [36]: 0.128 times
AREG gene expression, log2 [ratio] [36]: −2.969
IKBIP expression R*: Ratio to control [37]: 0.468 times
IKBIP expression log2 [ratio] [37]: −1.095
